ChEMBL document CHEMBL4411296, “Design and development of Isatin-triazole hydrazones as potential inhibitors of microtubule affinity-regulating kinase 4 for the therapeutic management of cell proliferation and metastasis” (Eur J Med Chem, 2019)

Experiments:
Assay type in all cases: functional
M14 = test: Growth inhibition of human M14 cells assessed as cell growth at 10 uM after 48 hrs by sulforhodamine B assay relative to control; details: M14, 48 h, read-out: Activity
BT-549 = test: Growth inhibition of human BT549 cells assessed as cell growth at 10 uM after 48 hrs by sulforhodamine B assay relative to control; details: BT-549, 48 h, read-out: Activity
NCI-H322M = test: Growth inhibition of human NCI-H322M cells assessed as cell growth at 10 uM after 48 hrs by sulforhodamine B assay relative to control; details: read-out: Activity
LOX IMVI = test: Growth inhibition of human LOXIMVI cells assessed as cell growth at 10 uM after 48 hrs by sulforhodamine B assay relative to control; details: read-out: Activity
NCI-H226 = test: Growth inhibition of human NCI-H226 cells assessed as cell growth at 10 uM after 48 hrs by sulforhodamine B assay relative to control; details: NCI-H226, 48 h, read-out: Activity
SK-MEL-2 = test: Growth inhibition of human SK-MEL-2 cells assessed as cell growth at 10 uM after 48 hrs by sulforhodamine B assay relative to control; details: SK-MEL-2, 48 h, read-out: Activity
A498 = test: Growth inhibition of human A498 cells assessed as cell growth at 10 uM after 48 hrs by sulforhodamine B assay relative to control; details: A498, 48 h, read-out: Activity
NCI-H522 = test: Growth inhibition of human NCI-H522 cells assessed as cell growth at 10 uM after 48 hrs by sulforhodamine B assay relative to control; details: NCI-H522, 48 h, read-out: Activity
786-0 = test: Growth inhibition of human 786-0 cells assessed as cell growth at 10 uM after 48 hrs by sulforhodamine B assay relative to control; details: 786-0, 48 h, read-out: Activity
Malme-3M = test: Growth inhibition of human MALME-3M cells assessed as cell growth at 10 uM after 48 hrs by sulforhodamine B assay relative to control; details: read-out: Activity
PC-3 = test: Growth inhibition of human PC3 cells assessed as cell growth at 10 uM after 48 hrs by sulforhodamine B assay relative to control; details: PC-3, 48 h, read-out: Activity
ACHN = test: Growth inhibition of human ACHN cells assessed as cell growth at 10 uM after 48 hrs by sulforhodamine B assay relative to control; details: read-out: Activity
SF-295 = test: Growth inhibition of human SF295 cells assessed as cell growth at 10 uM after 48 hrs by sulforhodamine B assay relative to control; details: SF-295, 48 h, read-out: Activity
HL-60(TB) = test: Growth inhibition of human HL-60(TB) cells assessed as cell growth at 10 uM after 48 hrs by sulforhodamine B assay relative to control; details: HL-60, 48 h, read-out: Activity
A549 = test: Growth inhibition of human A549/ATCC cells assessed as cell growth at 10 uM after 48 hrs by sulforhodamine B assay relative to control; details: A549, 48 h, read-out: Activity
EKVX = test: Growth inhibition of human EKVX cells assessed as cell growth at 10 uM after 48 hrs by sulforhodamine B assay relative to control; details: read-out: Activity
CAKI-1 = test: Growth inhibition of human Caki1 cells assessed as cell growth at 10 uM after 48 hrs by sulforhodamine B assay relative to control; details: CAKI-1, 48 h, read-out: Activity
SF-268 = test: Growth inhibition of human SF268 cells assessed as cell growth at 10 uM after 48 hrs by sulforhodamine B assay relative to control; details: SF-268, 48 h, read-out: Activity
SNB-75 = test: Growth inhibition of human SNB75 cells assessed as cell growth at 10 uM after 48 hrs by sulforhodamine B assay relative to control; details: SNB-75, 48 h, read-out: Activity
OVCAR-5 = test: Growth inhibition of human OVCAR5 cells assessed as cell growth at 10 uM after 48 hrs by sulforhodamine B assay relative to control; details: OVCAR-5, 48 h, read-out: Activity
HT-29 = test: Growth inhibition of human HT-29 cells assessed as cell growth at 10 uM after 48 hrs by sulforhodamine B assay relative to control; details: HT-29, 48 h, read-out: Activity
RPMI-8226 = test: Growth inhibition of human RPMI8226 cells assessed as cell growth at 10 uM after 48 hrs by sulforhodamine B assay relative to control; details: RPMI-8226, 48 h, read-out: Activity
NCI-H460 = test: Growth inhibition of human NCI-H460 cells assessed as cell growth at 10 uM after 48 hrs by sulforhodamine B assay relative to control; details: NCI-H460, 48 h, read-out: Activity
SNB-19 = test: Growth inhibition of human SNB19 cells assessed as cell growth at 10 uM after 48 hrs by sulforhodamine B assay relative to control; details: SNB-19, 48 h, read-out: Activity
RXF 393 = test: Growth inhibition of human RXF393 cells assessed as cell growth at 10 uM after 48 hrs by sulforhodamine B assay relative to control; details: RXF 393, 48 h, read-out: Activity
OVCAR-8 = test: Growth inhibition of human OVCAR8 cells assessed as cell growth at 10 uM after 48 hrs by sulforhodamine B assay relative to control; details: OVCAR-8, 48 h, read-out: Activity
NCI/ADR-RES = test: Growth inhibition of human NCI/ADR-RES cells assessed as cell growth at 10 uM after 48 hrs by sulforhodamine B assay relative to control; details: read-out: Activity
HCC 2998 = test: Growth inhibition of human HCC2998 cells assessed as cell growth at 10 uM after 48 hrs by sulforhodamine B assay relative to control; details: HCC 2998, 48 h, read-out: Activity
MCF7 = test: Growth inhibition of human MCF7 cells assessed as cell growth at 10 uM after 48 hrs by sulforhodamine B assay relative to control; details: MCF7, 48 h, read-out: Activity
UACC-62 = test: Growth inhibition of human UACC62 cells assessed as cell growth at 10 uM after 48 hrs by sulforhodamine B assay relative to control; details: UACC-62, 48 h, read-out: Activity
NCI-H23 = test: Growth inhibition of human NCI-H23 cells assessed as cell growth at 10 uM after 48 hrs by sulforhodamine B assay relative to control; details: NCI-H23, 48 h, read-out: Activity
CCRF-CEM = test: Growth inhibition of human CCRF-CEM cells assessed as cell growth at 10 uM after 48 hrs by sulforhodamine B assay relative to control; details: read-out: Activity
HOP-62 = test: Growth inhibition of human HOP62 cells assessed as cell growth at 10 uM after 48 hrs by sulforhodamine B assay relative to control; details: HOP-62, 48 h, read-out: Activity
MDA-MB-231 = test: Growth inhibition of human MDA-MB-231 cells assessed as cell growth at 10 uM after 48 hrs by sulforhodamine B assay relative to control; details: MDA-MB-231, 48 h, read-out: Activity

| Structure (SMILES) | growth at 10 µM (M14) [%] | growth at 10 µM (BT-549) [%] | growth at 10 µM (NCI-H322M) [%] | growth at 10 µM (LOX IMVI) [%] | growth at 10 µM (NCI-H226) [%] | growth at 10 µM (SK-MEL-2) [%] | growth at 10 µM (A498) [%] | growth at 10 µM (NCI-H522) [%] | growth at 10 µM (786-0) [%] | growth at 10 µM (Malme-3M) [%] | growth at 10 µM (PC-3) [%] | growth at 10 µM (ACHN) [%] | growth at 10 µM (SF-295) [%] | growth at 10 µM (HL-60(TB)) [%] | growth at 10 µM (A549) [%] | growth at 10 µM (EKVX) [%] | growth at 10 µM (CAKI-1) [%] | growth at 10 µM (SF-268) [%] | growth at 10 µM (SNB-75) [%] | growth at 10 µM (OVCAR-5) [%] | other results |
| --- | --- | --- | --- | --- | --- | --- | --- | --- | --- | --- | --- | --- | --- | --- | --- | --- | --- | --- | --- | --- | --- |
| COc1ccc(Cn2cc(C(=O)N/N=C3/C(=O)Nc4ccc(Br)cc43)nn2)cc1 | 111 | 111 | 102 | 107 | 97.5 | 98 | 97.1 | 89.1 | 99.6 | -89.9 | 99.8 | 110 | 95.8 | 85.2 | 95.1 | 106 | 97.7 | 94.1 | 112 | 106 | growth at 10 µM (HT-29): 88.5%; growth at 10 µM (RPMI-8226): 100%; growth at 10 µM (NCI-H460): 111%; growth at 10 µM (SNB-19): 97.3%; growth at 10 µM (RXF 393): 99.8%; growth at 10 µM (OVCAR-8): 99.2%; growth at 10 µM (NCI/ADR-RES): 103%; growth at 10 µM (HCC 2998): 98.5%; growth at 10 µM (MCF7): 86.3%; growth at 10 µM (UACC-62): 97.2%; growth at 10 µM (NCI-H23): 102%; growth at 10 µM (CCRF-CEM): 92.5%; growth at 10 µM (HOP-62): 111%; growth at 10 µM (MDA-MB-231): 108% |
| COc1ccc(Cn2cc(C(=O)N/N=C3/C(=O)Nc4ccc(Cl)cc43)nn2)cc1 | 110 | 116 | 104 | 108 | 96.8 | 99 | 96.6 | 90.6 | 99.8 | 95 | 94.9 | 107 | 108 | 93.2 | 103 | 106 | 101 | 98.9 | 115 | 114 | growth at 10 µM (HT-29): 93.7%; growth at 10 µM (RPMI-8226): 109%; growth at 10 µM (NCI-H460): 102%; growth at 10 µM (SNB-19): 98.5%; growth at 10 µM (RXF 393): 103%; growth at 10 µM (OVCAR-8): 105%; growth at 10 µM (NCI/ADR-RES): 115%; growth at 10 µM (HCC 2998): 107%; growth at 10 µM (MCF7): 91.5%; growth at 10 µM (UACC-62): 101%; growth at 10 µM (NCI-H23): 104%; growth at 10 µM (CCRF-CEM): 94.7%; growth at 10 µM (HOP-62): 112%; growth at 10 µM (MDA-MB-231): 113% |
| COc1ccc(Cn2cc(C(=O)N/N=C3/C(=O)Nc4c(Cl)cccc43)nn2)cc1 | 106 | 111 | 101 | 93.8 | 102 | 93.2 | 93.8 | 84 | 106 | 99.7 | 96.7 | 111 | 109 | 97.3 | 102 | 102 | 94.4 | 94.7 | 82 | 123 | growth at 10 µM (HT-29): 97%; growth at 10 µM (RPMI-8226): 106%; growth at 10 µM (NCI-H460): 99.7%; growth at 10 µM (SNB-19): 93.6%; growth at 10 µM (RXF 393): 109%; growth at 10 µM (OVCAR-8): 97.4%; growth at 10 µM (NCI/ADR-RES): 105%; growth at 10 µM (HCC 2998): 99.3%; growth at 10 µM (MCF7): 84.3%; growth at 10 µM (UACC-62): 102%; growth at 10 µM (NCI-H23): 99.3%; growth at 10 µM (CCRF-CEM): 106%; growth at 10 µM (HOP-62): 110%; growth at 10 µM (MDA-MB-231): 98.5% |
